What was measured:
[1] = test system: P. falciparum (NF 54 strain) hepatic stages; assay: In vitro assay for P. falciparum liver stage inhibition in primary human hepatocytes; type: cell-based; conditions: for IC50 / IC90: 120 h
Method: P. yoelii (265 BY strain) and P. falciparum (NF 54 strain) sporozoites were obtained by dissection of infected Anopheles stephensi salivary glands. Primary mouse hepatocytes were isolated as previously described and seeded in eight-well Lab-Tek plastic chamber slides (VWR, Fontenay-sous-Bois, France) previously coated with rat-tail collagen I (BD Biosciences, Le Pont de Claix, France) at a density of 10^5 cells per well. Mouse hepatocytes were cultured at 37 °C in 5% CO2 in William's E medium supplemented with 10% fetal calf serum, 1% L-glutamine, 1% sodium pyruvate, 1% insulin-transferrin-selenium, 1% nonessential amino acids, and 1% penicillin-streptomycin (all from Invitrogen, Cergy-Pontoise, France), for 24 h before inoculation of P. yoelii sporozoites (10^5 per well). Human liver fragments were collected following informed consent provided from patients undergoing a partial hepatectomy. The collection and use of these tissues were undertaken in accordance with French Government ethical regulations. Primary human hepatocytes were isolated from the healthy parts of these liver biopsies as previously described. Human hepatocytes were seeded in LabTek plastic chamber slides coated with collagen, at a density of 1.8 × 10^5 cells per well and cultured at 37 °C in 5% CO2 in the same medium as above, supplemented with 10^−7 M dexamethasone (Sigma) and 2% DMSO after complete cell adherence (12–24 h), for at least 48 h before inoculation of P. falciparum sporozoites (10^5 per well). For a standard assay, the plant extract, the purified compound, or primaquine was solubilized in DMSO, further diluted in culture medium (equal DMSO concentrations of <0.3% per well), and then added to hepatocyte cultures at the time of sporozoite inoculation. Three hours later, after sporozoite penetration into hepatocytes, cultures were washed and further incubated in the presence of the drug. Culture medium containing the appropriate drug concentration was changed daily until 48 h for P. yoelii, or until 5 d for P. falciparum. Parasites were quantified on the last day of incubation. For the in vitro timing experiments, tazopsine treatment of P. yoelii and P. falciparum cultures was undertaken for different periods during the cultivation: 0 h to 3 h, 3 h to 24 h, or 24 h to 48 h after P. yoelii sporozoite inoculation (quantification at 48 h), or 0 h to 2 d, or 3 d to 5 d after P. falciparum sporozoite inoculation (quantification at 5 d). […] Cells were stained with Evans Blue (0.4%), and parasites and cells nuclei were stained with 1 μg/ml of diamidino-phenylindole (DAPI; Sigma). Parasite numbers were counted under a fluorescence microscope with a 25× light microscope objective. IC50 values, the drug concentration at which a 50% reduction in the number of parasites was observed, as compared to the number in the DMSO control cultures, were derived from two independent experiments in which each concentration was tested in triplicate wells.
(§1) IC50 and TC50 were calculated by nonlinear regression using four-parameter logistic curves on the SigmaPlot 10.0 software (http://www.systat.com). Each IC50 or TC50 is expressed as a mean between two independent experiments, followed by the standard error of the mean.

[2] = test system: P. falciparum clone FCR3 (chloroquine resistant) erythrocytic stages; assay: In vitro assay for P. falciparum blood stages inhibition, clone FCR3; type: cell-based
Method: (§2) P. falciparum clone 3D7 (chloroquine sensitive) and clone FCR3 (chloroquine resistant) erythrocytic stages were cultured as described, and drug antiplasmodial activity was assessed by the standard method with minor modifications. Briefly, the compounds tazopsine and NCP-tazopsine solubilized in DMSO were further diluted in RPMI before adding to parasite cultures (0.5% parasitemia, mainly young trophozoites, and 1.8% final hematocrit), in a 2-fold dilution series. Plates were maintained for 24 h at 37 °C in 5% CO2. Then 0.5 μCi of [^3H]-hypoxanthine was added to each well, and cultures were incubated for a further 24 h. The growth inhibition was determined by comparison of the radioactivity incorporated into the treated cultures with that into the control cultures, by liquid scintillation counting.

[3] = test system: primary human hepatocytes; assay: In vitro assay for cell viability (neutral red), human hepatocytes; type: cell-based; conditions: 5 d drug exposure
Method: (§3) Primary hepatocytes of mice or humans were prepared as above and seeded in 96-well plates coated with collagen, at a density of 5 × 10^4 and 7 × 10^4 cells per well, respectively. Drugs were added to the culture medium, which was changed daily after 24 h or 48 h of incubation for mouse and human hepatocytes, respectively. After 48 h of drug exposure (mouse hepatocytes) or 5 d (human hepatocytes), 50 μl of neutral red (Sigma) at 0.02% in phosphate-buffered saline (PBS) were added per well and incubated for 24 additional hours. Cultures were then washed with PBS and the neutral red extracted with 1% SDS from viable cells and quantified by measuring the OD540 on a microplate autoreader photometer (BioTek Instruments, Winooski, Vermont, United States).
as §1

[4] = test system: P. falciparum clone 3D7 (chloroquine sensitive) erythrocytic stages; assay: In vitro assay for P. falciparum blood stages inhibition, clone 3D7; type: cell-based
Method: as §2

[5] = test system: primary mouse hepatocytes; assay: In vitro assay for cell viability (neutral red), mouse hepatocytes; type: cell-based; conditions: 48 h drug exposure
Method: as §3, §1

P. yoelii blood stages = assay: In vivo assay: P. yoelii blood stages in mice
Method: In order to test for inhibitory activity against P. yoelii blood stages, four groups of five naive mice were inoculated (intraperitoneally) with 10^6 P. yoelii–infected red blood cells on day 0. Three hours later, one group was treated with tazopsine at 100 mg/kg, another with NCP-tazopsine at 200 mg/kg, whereas the other two groups acted as controls (respectively, water and 10% Tween 80). The doses were repeated daily until day +3. For the group treated with NCP- tazopsine and its control group, the animals were anesthetised 2 h following the administration of the last dose (day +3), and placed for 30 min over a cage with 100 female laboratory-bred A. stephensi. Oocysts were enumerated in 30 mosquito midguts dissected 8 d later, and the number of sporozoites in the salivary glands dissected from 30 insects was ascertained a further 7 d later. All the experiments were performed in two independent duplicates, and enumeration of parasites in blood smears and mosquitoes was conducted in a blinded fashion.

[6] = Plasmodium falciparum, Hepatocyte

For `COC1=C2[C@@H]3[C@H](O)c4ccc(OC)c(O)c4[C@]2(CCN3C2CCCC2)C[C@H](O)[C@@H]1O` [NCP-tazopsine, N-cyclopentyl-tazopsine], the IC50 [1, 6] was 42.4 µM, the IC90 [1, 6] was 95.4 ± 6.6 µM and the “effect on multiplication of cultured erythrocytic P. falciparum” value ([2]; FCR3 line, up to concentrations of 600 μM) was “did not have any detectable effect”. For the same molecule, the TC50 [3] was 2,549.6 ± 307.6 μM, the “effect on multiplication of cultured erythrocytic P. falciparum” value ([4]; 3D7 line, up to concentrations of 600 μM) was “did not have any detectable effect” and the TC50 [5] was 150.5 ± 9.5 µM. The “effect on blood stage parasite multiplication” value (P. yoelii blood stages; fully protective dose (200 mg/kg), mice inoculated with P. yoelii-infected blood (unpublished data)) was “no effect” and the toxicity to mice (Oral toxicity in mice; up to doses of 400 mg/kg for 4 d) was “not found to be toxic”.

For `COC1=C2[C@H]3NCC[C@]2(C[C@H](O)[C@@H]1O)c1c(ccc(OC)c1O)[C@H]3O` [Tazopsine, tazopsine], the “phase of hepatic development most susceptible to inhibition” value ([1]; P. falciparum, exposure 0 h-2 d or 3 d-5 d) was “most susceptible to inhibition during the early stage of trophozoite development”, the “concentration at which parasite development fully inhibited” value ([1]; P. falciparum-infected primary human hepatocyte cultures) was at least 28 µM and the IC80 [1, 6] was 10 µM. For the same molecule, the IC50 [1, 6] was 4.2 ± 0.1 µM, the IC90 [1, 6] was 18.3 ± 2.8 µM and the “size of surviving hepatic parasites versus control cultures” value ([1]; suboptimal inhibitory concentrations, 5 d) was “significantly smaller”. The IC50 ([2]; Plasmodium falciparum, FCR3) was 5.7 ± 2.1 µM, the TC50 [3] was 28.4 ± 4.3 µM and the IC50 ([4]; Plasmodium falciparum, 3D7) was 4.7 ± 0.9 µM. The TC50 [5] was 43.7 ± 1.6 µM, the “inhibition of the erythrocytic multiplication cycle” value (P. yoelii blood stages; 100 mg/kg daily, mice challenged with P. yoelii-infected blood (unpublished data)) was “No significant inhibition” and the “oral dose above which toxic to mice” value (Oral toxicity in mice; given daily over 4 d) was “exceeding 100 mg/kg”.
